In brackets after ≈: the same amount, converted by molar mass. Like-named read-outs stand apart in the source and are kept apart here.
Assays:
[1] = Solubility in chlorofluorocarbons with alkylamine solubilizers
in vivo = conditions: rat
Protocol: The biodistribution and pharmacokinetics of an inhaled formulation of all-trans retinoic acid were compared to both intra-tracheal and intravenous administration. Anesthetized (i.p. pentobarbitol 50 mg/kg) male Sprague-Dawley rats weighing 300 to 700 grams were treated by administration of all-trans retinoic acid by inhalation, iv injection or intra-tracheal injection. Inhaled and intra-tracheal injections were given through an endotracheal tube placed under direct vision over a guidewire as described by Weksler et al., J. Appl. Physiol. 76: 1823-1825 (1994). IV doses were given by catheter injection via the right external jugular vein.
For inhalation, all-trans retinoic acid was solublized in hydrofluorocarbon 123 using tetramethylamunonium hydroxide to a concentration of 5 mg/ml, and combined with hydrofluoroalkane 134a as propellant, for a final concentration of 1.5 mg per 1.475 grams of propellant solution. […] An identical inhaler containing propellant mixture without drug was used as a control. […] This procedure was also repeated with an angiocatheter fitted to the apparatus. The catheter was subsequently rinsed with 10 ml of isopropanol, which was also collected. The three solutions were then assayed for all-trans retinoic acid concentrations in order to determine the amount of drug delivered through the apparatus, as well as any residual drug that was bound to the angiocatheter. We defined the area under the concentration times-time curve (AUC) for animals who received intra-tracheal all-trans retinoic acid as 100% effective dose delivery to the lung.
For injection, an aqueous solution of all-trans retinoic acid was prepared in 20% ethanol, 10% Tween 20 and 1 mM NH4OH, for a final concentration of […] all-trans retinoic acid per ml of solution. A mixture of 20% ethanol and 10% Tween 20 served as a control.
Animals were grouped into three experimental groups and two control groups. The control groups received no treatment or a control inhalant containing no all-trans retinoic acid. Animals in the groups receiving iv or intra-tracheal injections each received a single dose containing 250 μg all-trans retinoic acid. Animals in the group treated with the multidose inhaler each received three doses for a total of 147 μg of all-trans retinoic acid.

physchem [2] = conditions: organic solvent or mixture, thermodynamic from solid
Protocol: Maximum solubility was determined by weighing the residue remaining after evaporation of the solvent.

[3] = Attempts at aqueous solutions (MOLECUSOL, ammonium salt); format: physicochemical; conditions: solutions containing 45% MOLECUSOL (modified beta cyclodextrin)
From the text: Next, because of a report that the solubility of retinol (vitamin A) in water could be increased by addition of modified beta cyclodextrin (MOLECUSOL®), we next tried to prepare aqueous solutions of all-trans retinoic acid using MOLECUSOL® to enhance the solubility. […] Similarly, efforts to solubilize all-trans retinoic acid in aqueous solution using phosphatidylcholine and phosphatidylethanolamine produced a viscous colloid which was unsuited for aerosol administration.
We next tried to use salts of the retinoids to obtain a water-soluble product for aerosol generation. When all-trans retinoic acid is treated with ammonium hydroxide, a water-soluble ammonium salt is obtained. The pH of solutions of this salt is too high (pH >10), however, for direct administration as an aerosol. Neutralization of the solution after dissolution of the retinoid led to the formation of a precipitate, both in the presence and absence of added beta cyclodextrin.

[4] = Histologic examination of lungs and trachea after single-dose administration; conditions: rat
Protocol: Animals were sacrificed at 5 minutes and at 1, 2, 4 and 6 hours, and blood and liver and lung tissue were harvested for analysis by high performance liquid chromatography (HPLC) and histology. In addition, animals receiving the inhalant were sacrificed at 24 hours post-treatment.

physchem [5] = conditions: HCFC-123 without alkylamine, organic solvent or mixture
[6] = Tissue/plasma concentrations after intra-tracheal instillation (HPLC); format: in vivo, Sprague-Dawley rats; conditions: Sprague-Dawley, other: intra-tracheal instillation, rat, 100 μg intra-tracheal instillation
Protocol: To evaluate the bioavailability of retinoids delivered by inhalation, 100 μl of an aqueous solution containing 100 μg of all-trans retinoic acid was administered via intra-tracheal instillation to 3 Sprague-Dawley rats, each weighing approximately 200 g. One rat was then sacrificed at three time points: 1, 6 and 24 hours after treatment. At the time of sacrifice, the chest cavity was opened, both lungs and trachea were removed en bloc, and the right and left lungs were separated by dissection. The liver was also removed, along with a sample of blood obtained by cardiac puncture. The blood sample was separated by centrifugation, and plasma plus each of the aforementioned tissues were frozen for later analysis. Subsequently, the tissue was homogenized, and the homogenized tissue and plasma were extracted with ethanol.

[7] = male, Sprague-Dawley, inhaled or intranasal, 147 ug
[8] = male, Sprague-Dawley, iv, 250 ug
[9] = left lung, read-out: Left Lung concentration
[10] = liver, read-out: Liver concentration
[11] = plasma, read-out: Plasma concentration
[12] = right lung, read-out: Right Lung concentration
[13] = trachea, read-out: Trachea concentration

For `CC1=C(/C=C/C(C)=C/C=C/C(C)=C/C(=O)O)C(C)(C)CCC1` [all-trans retinoic acid], the “Maximum Solubility” value ([1]; HCFC-123, alkylamine 1.44 mg/ml) was “˜17 mg/ml”, the “Maximum Solubility” value ([1]; HCFC-123, alkylamine 7.22 mg/ml) was “˜44 mg/ml” and the “Lung AUC, intra-tracheal route relative to aerosolized route” value (in vivo; male, Sprague-Dawley) was 100 times. The concentration at 1 hour (in vivo; male, Sprague-Dawley) was 68 ± 44 ng/mL, the AUC (in vivo; male, Sprague-Dawley, 250 ug) was 191 ng·h/mL and the “Liver AUC” value (in vivo; male, Sprague-Dawley, 250 ug) was 2532 ng-hr/gm. The “Lung AUC” value (in vivo; male, Sprague-Dawley, 250 ug) was 26972 ng-hr/gm, the half-life (in vivo; male, Sprague-Dawley, 250 ug, Liver T½) was 22 h and the half-life (in vivo; male, Sprague-Dawley, 250 ug, Lung T½) was 17.7 h. For the same compound, the half-life (in vivo; male, Sprague-Dawley, 250 ug, Plasma T½) was 1.9 h, the AUC (in vivo; [7]) was 171 ng·h/mL and the “Liver AUC” value (in vivo; [7]) was 2307 ng-hr/gm. For the same compound, the “Lung AUC” value (in vivo; [7]) was 262 ng-hr/gm, the half-life (in vivo; male, Sprague-Dawley, inhaled or intranasal, 147 ug, Lung T½) was 5.4 h and the half-life (in vivo; male, Sprague-Dawley, inhaled or intranasal, 147 ug, Plasma T½) was 3 h. For the same compound, the “Total absorption (percent effective dose: inhaled AUC / intra-tracheal AUC)” value (in vivo; male, Sprague-Dawley, inhaled or intranasal, 250 ug) was 1-2%, the AUC (in vivo; [8]) was 1380 ng·h/mL and the “Liver AUC” value (in vivo; [8]) was 4724 ng-hr/gm. The “Liver T½” value (in vivo; [8]) was 0.8 h, the “Lung AUC” value (in vivo; [8]) was 11910 ng-hr/gm and the half-life (in vivo; male, Sprague-Dawley, iv, 250 ug, Liver T½) was 1 h. The half-life (in vivo; male, Sprague-Dawley, iv, 250 ug, Lung T½) was 1.9 h, the “Lung AUC, intra-tracheal route relative to iv route” value (in vivo) was “twice” and the solubility (physchem [2]; ethyl acetate) was 10000 µg/mL (≈ 33.3 mM). For the same compound, the solubility (physchem [2]; methylene chloride) was 5000 µg/mL (≈ 16.6 mM), the “Solubility in aqueous solution” value [3] was “enhance the solubility of the all-trans retinoic acid to a useful level” and the “Histologic examination of lungs and traches” value [4] was “no focal irritation attributable to the drug”. It also gave a solubility (physchem [5]) of roughly 2000 µg/mL (≈ 6.66 mM), a concentration at 1 hour [6, 9] of 928 ng/g and a concentration at 6 hours [6, 9] of 56 ng/g. It also gave a concentration at 24 hours [6, 9] of 22 ng/g, a concentration at 1 hour [6, 10] of 233 ng/g and a concentration at 6 hours [6, 10] of 24 ng/g. For the same compound, the concentration at 24 hours [6, 10] was 23 ng/g, the concentration at 1 hour [6, 11] was 123 ng/mL and the concentration at 24 hours [6, 11] was 178 ng/mL. It also gave a concentration at 1 hour [6, 12] of 773 ng/g, a concentration at 6 hours [6, 12] of 91 ng/g and a concentration at 24 hours [6, 12] of 21 ng/g. It also gave a concentration at 1 hour [6, 13] of 2860 ng/g, a concentration at 6 hours [6, 13] of 96 ng/g and a concentration at 24 hours [6, 13] of 30 ng/g.
